Source: patent US20100331297A1, “MODULATION OF PROTEIN TRAFFICKING” (FOLDRX PHARMACEUTICALS, INC., priority 2007, published 2010)

Tests used:
Type in all cases: cell-based
[1] = biological target: T1, ΔF508 CFTR (Homo sapiens, UniProt P13569, DEL508-508); experiment: Corrector activity, YFP halide (iodide) quenching assay in FRT cells expressing ΔF508 CFTR; set-up: expressed in transfected cells; host or cells: Fischer rat thyroid (FRT) cells; details: Corrector EC50, FRT cells ΔF508 CFTR/YFP, 24 hours with compound at 37° C., forskolin and genistein
Summary of the method: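 FRT cells co-expressing ΔF508 CFTR and halide-sensitive YFP were incubated 24 h at 37° C with compounds, then stimulated 30 min at 37° C in PBS with forskolin and genistein. Endpoint fluorescence after iodide injection was normalized to initial reading; EC50 from 4-parameter fit with bottom constrained to DMSO control.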

[2] = biological target: T1, ΔF508 CFTR; experiment: Ussing chamber assay, short-circuit current in FRT cells stably expressing ΔF508 CFTR; set-up: expressed in transfected cells; host or cells: Fischer rat thyroid (FRT) cells; details: FRT ΔF508 CFTR monolayers treated 24 hours; forskolin, isobutylmethylxanthine, genistein
Procedure: Ussing Chamber Assay: Fischer rat thyroid (FRT) cells stably expressing ΔF508 CFTR (cystic fibrosis transmembrane conductance regulator) were cultured as previously described in Am J. Physiol. (1994) 266 L405-413. Monolayers of cells were grown on Snapwell inserts (Corning Inc.) at the air/liquid interface. The monolayers were treated with compound for 24 hours. The inserts are mounted in Ussing chambers (Harvard Apparatus) and short-circuit currents are measured using a voltage clamp apparatus (WPI, Inc.). A mucosal to serosal gradient in chloride concentration is imposed and the basolateral membrane is permeabilized using amphotericin. Short circuit currents are measured upon addition of the agonists forskolin, isobutylmethylxanthine, and genistein to maximally activate CFTR.

[3] = tested on: ypt1^ts cells; experiment: Rescue of growth of ypt1^ts mutant yeast (OD600); details: Saccharomyces cerevisiae, read-out: Ypt1-ts MRC (Minimum Rescue Concentration), ypt1^ts cells, 35° C. and 37° C., OD600; multiple results separated by a comma
Summary of the method: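 Log-phase ypt1^ts cells (N121I/A161V) in SC 2% glucose were diluted to OD600 0.003 and treated with compound at 50 μM-0.05 μM final in 1% DMSO. Cultures were incubated at 35° C. (read at 24 and 40 h) or 37° C. (read at 40 h), with rescue measured as OD600 growth and reported as minimum rescue concentration.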

T1 sequence (P13569 with tags, fused parts or gaps DEL508-508): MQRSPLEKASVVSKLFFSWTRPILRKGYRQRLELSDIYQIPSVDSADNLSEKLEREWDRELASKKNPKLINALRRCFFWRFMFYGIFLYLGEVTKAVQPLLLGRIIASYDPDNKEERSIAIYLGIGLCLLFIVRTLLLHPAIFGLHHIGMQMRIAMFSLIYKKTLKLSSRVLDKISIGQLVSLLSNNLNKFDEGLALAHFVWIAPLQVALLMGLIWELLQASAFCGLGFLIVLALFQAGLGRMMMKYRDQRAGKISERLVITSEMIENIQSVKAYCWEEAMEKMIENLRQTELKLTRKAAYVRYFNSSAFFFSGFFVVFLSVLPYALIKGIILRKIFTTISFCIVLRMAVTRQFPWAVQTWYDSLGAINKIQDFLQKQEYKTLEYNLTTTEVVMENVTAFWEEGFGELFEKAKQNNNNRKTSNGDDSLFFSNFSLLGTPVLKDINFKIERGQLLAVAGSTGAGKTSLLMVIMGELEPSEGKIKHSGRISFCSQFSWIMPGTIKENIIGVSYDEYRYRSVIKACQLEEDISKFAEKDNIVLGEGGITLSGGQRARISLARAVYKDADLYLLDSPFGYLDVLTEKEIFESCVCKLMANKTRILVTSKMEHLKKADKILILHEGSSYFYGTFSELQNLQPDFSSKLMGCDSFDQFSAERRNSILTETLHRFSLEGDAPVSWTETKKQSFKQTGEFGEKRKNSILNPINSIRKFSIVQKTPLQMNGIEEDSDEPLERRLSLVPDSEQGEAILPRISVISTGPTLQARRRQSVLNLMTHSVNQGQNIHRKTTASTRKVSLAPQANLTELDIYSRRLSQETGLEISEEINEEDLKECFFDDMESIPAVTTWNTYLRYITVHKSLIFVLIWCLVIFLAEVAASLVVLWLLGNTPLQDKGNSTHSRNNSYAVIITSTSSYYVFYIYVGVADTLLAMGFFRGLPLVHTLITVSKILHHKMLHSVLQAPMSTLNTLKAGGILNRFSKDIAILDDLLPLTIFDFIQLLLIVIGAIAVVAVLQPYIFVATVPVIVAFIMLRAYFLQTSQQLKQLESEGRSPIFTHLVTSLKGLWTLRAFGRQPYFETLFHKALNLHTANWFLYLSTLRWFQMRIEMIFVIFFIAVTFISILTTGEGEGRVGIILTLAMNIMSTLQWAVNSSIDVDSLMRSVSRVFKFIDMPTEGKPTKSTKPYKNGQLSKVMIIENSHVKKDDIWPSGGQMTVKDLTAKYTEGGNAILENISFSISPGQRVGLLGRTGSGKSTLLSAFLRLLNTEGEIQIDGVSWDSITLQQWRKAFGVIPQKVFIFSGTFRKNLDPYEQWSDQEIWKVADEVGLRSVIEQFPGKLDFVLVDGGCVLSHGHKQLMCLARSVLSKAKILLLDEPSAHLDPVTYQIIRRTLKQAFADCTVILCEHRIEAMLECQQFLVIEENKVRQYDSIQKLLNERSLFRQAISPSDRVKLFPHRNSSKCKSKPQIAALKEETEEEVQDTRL

## CC(C)(C)n1nc(-c2ccc(Cl)cc2)c2c(N)ncnc21 [compound 25]
[1]
  EC50: 2 to 5 µM
[2]
  short circuit current after the addition of all three agonists: ~65 uA/cm^2
[3]
  minimal effective concentration: < 10 µM
